Consider eight molecules from EP0863148A1, “Compounds derived from adenosine, use of such compound as a medicament, method for synthesizing such a compound and intermediates thereof” (K.U. LEUVEN RESEARCH & DEVELOPMENT, priority 1997, dated 1998).

One test has as its target T1, adenosine A1 receptor (Rattus norvegicus, UniProt P25099).
T1 construct: adenosine A1 receptor in rat brain cortex; from tissue; host or cells: rat brain cortex
T1 sequence (P25099 1-326): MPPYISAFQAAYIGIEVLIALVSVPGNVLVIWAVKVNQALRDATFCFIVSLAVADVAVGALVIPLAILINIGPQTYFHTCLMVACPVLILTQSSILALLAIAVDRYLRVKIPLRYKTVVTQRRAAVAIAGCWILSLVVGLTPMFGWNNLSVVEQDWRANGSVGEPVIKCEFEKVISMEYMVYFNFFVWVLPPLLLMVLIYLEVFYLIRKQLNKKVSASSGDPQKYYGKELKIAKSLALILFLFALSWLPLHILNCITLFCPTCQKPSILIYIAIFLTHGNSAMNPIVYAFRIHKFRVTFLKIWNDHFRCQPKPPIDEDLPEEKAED
Nature of the test: Radioligand binding assay, displacement of [3H]DPCPX, in the absence and presence of 1 mM GTP. The note with it: for Ki: rat brain cortex, [3H]DPCPX; for GTP shift: ratio of the apparent Ki values in the presence and absence of 1 mM GTP. How it is done: The compounds were assayed for A1 affinity (Ki values expressed in µM) using the tritiated antagonist [^3H]-1,3-dipropyl-8-cyclopentylxanthine (DPCPX). Displacement experiments were performed in the absence and presence of 1 mM GTP, allowing the determination of the GTP shift (i.e., the ratio of the apparant Ki values in the presence and absence of GTP, respectively). This shift is an in vitro parameter often indicative for intrinsic activity.

A further test deals with A2a receptors. Briefly: Selectivity for A1 vs A2a receptors (method not described). Format: binding.
In a further test the target is T2, A1 receptor (Homo sapiens, UniProt P30542).
T2 sequence (P30542 1-326): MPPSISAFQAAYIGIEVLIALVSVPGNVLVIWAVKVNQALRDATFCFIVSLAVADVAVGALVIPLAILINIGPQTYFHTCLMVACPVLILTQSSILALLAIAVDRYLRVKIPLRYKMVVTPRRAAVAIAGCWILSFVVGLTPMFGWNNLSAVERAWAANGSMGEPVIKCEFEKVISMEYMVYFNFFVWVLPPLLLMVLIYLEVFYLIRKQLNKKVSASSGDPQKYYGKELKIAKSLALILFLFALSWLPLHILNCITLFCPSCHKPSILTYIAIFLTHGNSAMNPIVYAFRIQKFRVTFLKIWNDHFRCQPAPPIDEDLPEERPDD
The note with it: cited from earlier work.

A2a receptors, sequence (P29274 whole entry): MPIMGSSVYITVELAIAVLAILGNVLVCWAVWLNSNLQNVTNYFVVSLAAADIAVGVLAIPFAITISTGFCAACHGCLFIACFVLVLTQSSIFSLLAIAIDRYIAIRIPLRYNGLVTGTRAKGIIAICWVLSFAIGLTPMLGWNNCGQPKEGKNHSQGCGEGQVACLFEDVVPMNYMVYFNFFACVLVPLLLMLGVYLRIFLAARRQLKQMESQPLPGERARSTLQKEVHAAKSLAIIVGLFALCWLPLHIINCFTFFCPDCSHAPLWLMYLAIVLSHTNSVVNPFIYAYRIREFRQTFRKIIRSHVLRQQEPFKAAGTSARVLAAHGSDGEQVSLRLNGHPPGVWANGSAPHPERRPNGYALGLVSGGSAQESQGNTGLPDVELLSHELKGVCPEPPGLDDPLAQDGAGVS

Take `Cc1ccc(C(=O)N[C@@H]2[C@@H](O)[C@H](n3cnc4c(NC5CCCC5)ncnc43)O[C@@H]2CO)cc1C` [c, 9-[3-Deoxy-3-(3,4-dimethylbenzamido)-β-D-xylofuranosyl]-N^6-cyclopentyladenine]: the inhibitory constant (Ki) at adenosine A1 receptor (absence of GTP) is 23.6 ± 2.5 nM; on adenosine A1 receptor (presence of 1 mM GTP), 17.4 ± 4.2 nM. At adenosine A1 receptor, the GTP shift was 0.73±0.11. Moreover, the “selectivity for A1 vs A2a receptors” value with A2a receptors was 160 times.
`O=C(N[C@@H]1[C@@H](O)[C@H](n2cnc3c(NC4CCCC4)ncnc32)O[C@@H]1CO)c1ccc(Cl)c(Cl)c1` [d, 9-[3-Deoxy-3-(3,4-dichlorobenzamido)-β-D-xylofuranosyl]-N^6-cyclopentyladenine]: the Ki at adenosine A1 receptor (absence of GTP) stood at 32.5 ± 0.31 nM; at adenosine A1 receptor (presence of 1 mM GTP), 23.7 ± 1.4 nM. The GTP shift on adenosine A1 receptor stood at 0.73±0.09.
In the case of `Nc1ncnc2c1ncn2[C@@H]1O[C@H](CO)C[C@H]1O` [3'-deoxyadenosine, reference compound], the figures for the Ki on adenosine A1 receptor (absence of GTP) and at adenosine A1 receptor (presence of 1 mM GTP) were 7120 ± 3620 nM and 15200 ± 2000 nM, respectively. On adenosine A1 receptor, the GTP shift is reported as 2.1±1.4.
Turning to `C[C@H](Cc1ccccc1)Nc1ncnc2c1ncn2[C@@H]1O[C@H](CO)C[C@H]1O` [3'-deoxy-R-PIA], the drop in affinity at A1 receptor (A1 receptor affinity, removal of the 3'-hydroxyl group of R-PIA) is 30 fold.
Take `OCC1CC(O)C(n2cnc3c(NC4CCCC4)ncnc32)O1` (stereo not shown) [3'-deoxy-CPA, reference compound]: at A1 receptor (stated in words, background), the “affinity for the A1 receptor” value is listed as “submicromolar affinity”. For the same molecule, the Ki was determined as 110 ± 30 nM at adenosine A1 receptor (absence of GTP) and 470 ± 40 nM at adenosine A1 receptor (presence of 1 mM GTP). For the same molecule, on adenosine A1 receptor, the GTP shift was 4.3±1.2.
With `Cc1ccc(C(=O)N[C@@H]2[C@@H](O)[C@H](n3cnc4c(NC5CCCC5)ncnc43)O[C@@H]2CO)cc1` [b, 9-[3-Deoxy-3-(4-methylbenzamido)-β-D-xylofuranosyl]-N^6-cyclopentyladenine], the Ki turned out to be 83 ± 15 nM on adenosine A1 receptor (absence of GTP) and 68 ± 10 nM at adenosine A1 receptor (presence of 1 mM GTP). The GTP shift on adenosine A1 receptor was found to be 0.84±0.19.
`[N-]=[N+]=NC1C(CO)OC(n2cnc3c(NC4CCCC4)ncnc32)C1O` (stereo not shown) [compound 3]: the “affinity for A1 receptors” value on adenosine A1 receptor (stated in words) is given as “relatively poor affinity”.
For `O=C(N[C@@H]1[C@@H](O)[C@H](n2cnc3c(NC4CCCC4)ncnc32)O[C@@H]1CO)c1ccccc1` [a, 9-(3-Benzamido-3-deoxy-β-D-xylofuranosyl)-N^6-cyclopentyladenine], the Ki at adenosine A1 receptor (absence of GTP) turned out to be 400 ± 130 nM; on adenosine A1 receptor (presence of 1 mM GTP), 310 ± 50 nM. The GTP shift at adenosine A1 receptor came to 0.80±0.13.
